Data set [1] relates to mouse ES cells. Put plainly: RT-PCR detection of differential gene expression in ES cell units after split-split culture. The settings on record: DMEM, 1 μM, FIG. 11. The class given is cell-based. How it is done: Pluripotent mouse ES cell units were cultured for five days in ES cell medium (see example 3), the ES medium was decanted and the cell units washed twice with PBS to remove traces of ES medium. The bead population was split into three groups, and the PBS decanted and replaced with one of (i) ES cell medium; (ii) Dulbecco's modified Eagle's medium (DMEM) with 10% fetal calf serum; or (iii) Chemically Defined Medium (CDM; Wiles M V, Johansson B M, 1999, Exp. Cell Res., vol 247, p. 241-8). After one hour culture under standard conditions, each of the three groups were split into three further groups, each of which was incubated in one of: (i) the medium in which the cell groups were cultured; the medium in which the cell groups were cultured including 1 μM LiCl; or (iii) the medium in which the cell groups were cultured including 1 μm retinoic acid (RA). Every other day half the medium was replaced with the respective fresh medium.
Cell units of mouse ES cells induced to differentiate by split-split culture (see example 4) were washed with PBS, and RNA prepared from the cell units using Rneasy reagents according to manufacturer's instructions (Qiagen). RNA samples were then used to prepare first strand cDNA with oligo-dT priming using reverse transcriptase according to the manufacturer's instructions (Invitrogen). […]

For data set [2], the system named is cytochrome P450 (CyP450) metabolic enzymes. Nature of the data set: CyP450 ethoxyresorufin assay on HepG2 cell units. Type of data set: cell-based, human. How it is done: A split-pool culture experiment was performed in order to assay tissue culture conditions that might affect a particular cellular process, namely the expression and/or activity of cytochrome P450 (CyP450) metabolic enzymes. Members of this class of enzyme, such as 1A1 and 1A2, can be assayed with the use of a substrate, ethoxyresorufin, that is enzymatically hydrolyzed to produce a product, resorufin, that has distinct fluorescence characteristics that can be used to measure CyP450 enzyme activity. The expression of CyP450 enzymes can be regulated by inducer molecules, such as β-naphthoflavone, and inhibitors such as α-naphthoflavone, quinidine, or aminotriazole. It is also possible for some molecules to induce expression of a CyP450 gene(s), but inhibit activity of the enzyme product of that gene. Therefore, complicated patterns of expression and activity can arise according to the pattern of serial exposure of cells to regulatory compounds. […]
For the CyP450 assay, aliquots of beads in growth medium were removed and the enzyme substrate ethoxyresorufin was added to a final concentration of 10 μM. The samples of beads were placed on a microscope slide with a cover slip, and observed immediately with an epifluorescent microscope using a standard filter set for Texas Red/rhodamine fluorescence (see FIG. 9). […]

`[Cl-].[Li+]` [LiCl]: in data set [1], the “decrease in Oct4” value is “inhibited the reduction”. Regarding `O=c1cc(-c2ccccc2)oc2ccc3ccccc3c12` [β-naphthoflavone], the “P450 level / conversion of ethoxyresorufin to fluorescent product” value in data set [2] (HepG2 cell units following a split pool experiment, FIG. 9 Panels E/F) is recorded as “high levels of P450”. Further, in data set [2] (HepG2 cell units on CYTODEX 3 treated in a control experiment, 10 μM ethoxyresorufin, control cells about 15-20 minutes), the “time until enzyme activity (resorufin fluorescence) is evident after addition of ethoxyresorufin” value fell in the range of 5 to 10 min.

For the origin of these results see patent US9574174B2, “Cell culture” (PLASTICELL LIMITED, priority 2002, dated 2017).
